Measured values published in patent US20100113465A1, “7-AZASPIRO[3.5]NONANE-7-CARBOXAMIDE COMPOUNDS” (Pfizer Inc., priority 2008, published 2010).
Marks after values point to notes of the source that are not given here.

Assays:
human FAAH = biological target: T1, human FAAH (Homo sapiens, UniProt O00519); assay: FAAH assay, human FAAH enzyme inhibition (kinact/Ki); format: biochemical; conditions: oleamide substrate 50 μM, 30° C., read-out: hFAAH kinact/Ki
T1 construct: made in house; host or cells: E. coli
T1 sequence (O00519 1-579): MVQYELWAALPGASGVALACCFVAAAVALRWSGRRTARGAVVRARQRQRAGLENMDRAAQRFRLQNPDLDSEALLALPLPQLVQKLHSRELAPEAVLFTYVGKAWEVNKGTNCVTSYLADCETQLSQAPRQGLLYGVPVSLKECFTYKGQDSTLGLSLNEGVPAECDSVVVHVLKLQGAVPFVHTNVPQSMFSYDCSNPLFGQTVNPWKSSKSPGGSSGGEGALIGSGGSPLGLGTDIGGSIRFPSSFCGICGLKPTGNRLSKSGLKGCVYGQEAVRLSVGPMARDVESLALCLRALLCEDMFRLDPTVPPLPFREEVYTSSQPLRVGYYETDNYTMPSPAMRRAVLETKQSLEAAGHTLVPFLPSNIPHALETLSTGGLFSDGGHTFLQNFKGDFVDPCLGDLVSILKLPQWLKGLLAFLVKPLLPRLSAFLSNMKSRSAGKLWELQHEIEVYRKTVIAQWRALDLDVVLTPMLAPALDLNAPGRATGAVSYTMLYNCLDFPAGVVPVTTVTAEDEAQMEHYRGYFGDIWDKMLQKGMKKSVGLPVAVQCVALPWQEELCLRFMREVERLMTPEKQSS
In short: (§1)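 Purified E. coli-expressed FAAH (1-4 nM) with oleamide at Km (50 μM), coupled GDH/NADH read at 340 nm over 90 min, 30° C, pH 7.4, 7.5% DMSO and EtOH. kobs from mono-exponential fits; kinact/Ki from kobs vs inhibitor slope, multiplied by two.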

rat FAAH = biological target: T2, rat FAAH (Rattus norvegicus, UniProt P97612); assay: FAAH assay, rat FAAH enzyme inhibition (kinact/Ki); format: biochemical; conditions: oleamide substrate 50 μM, 30° C., read-out: rFAAH kinact/Ki
T2 construct: made in house; host or cells: E. coli
T2 sequence (P97612 1-579): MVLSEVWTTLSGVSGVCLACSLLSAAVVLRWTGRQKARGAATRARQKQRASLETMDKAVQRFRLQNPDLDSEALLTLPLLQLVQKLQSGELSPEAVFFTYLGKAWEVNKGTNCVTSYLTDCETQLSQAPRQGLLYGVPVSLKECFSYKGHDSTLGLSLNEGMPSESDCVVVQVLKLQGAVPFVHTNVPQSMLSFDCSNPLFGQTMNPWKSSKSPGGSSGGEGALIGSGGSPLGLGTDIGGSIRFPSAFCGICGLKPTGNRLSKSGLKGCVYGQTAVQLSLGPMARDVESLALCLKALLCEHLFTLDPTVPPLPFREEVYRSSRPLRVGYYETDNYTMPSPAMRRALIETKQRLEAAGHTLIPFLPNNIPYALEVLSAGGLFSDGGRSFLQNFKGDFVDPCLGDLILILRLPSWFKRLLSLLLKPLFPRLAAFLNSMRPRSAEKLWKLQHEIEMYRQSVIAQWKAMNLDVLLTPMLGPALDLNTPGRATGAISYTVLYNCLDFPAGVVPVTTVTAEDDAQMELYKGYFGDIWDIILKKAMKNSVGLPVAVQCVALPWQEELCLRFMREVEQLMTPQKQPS
In short: as §1

Male Sprague-Dawley Rats = assay: In vivo Complete Freund's Adjuvant (CFA) efficacy assay; parameters: species or system rat; key: (+) indicates the test compound was determined to be efficacious at 3 mpk, oral dosing; (−) indicates the test compound was determined to not be efficacious at 3 mpk, oral dosing; conditions: inhibition of allodynia vs vehicle, p<0.05

Row | Structure (SMILES) | kinact/KI (human FAAH) [M⁻¹ s⁻¹] | kinact/KI (rat FAAH) [M⁻¹ s⁻¹] | CFA Efficacy (Male Sprague-Dawley Rats; 10 mpk, intraperitoneal dosing) | CFA Efficacy (Male Sprague-Dawley Rats; 1 mpk, oral dosing)
1 | COc1cccc(C2CC3(CCN(C(=O)Nc4onc(C)c4C)CC3)C2)c1 [Example 5, N-(3,4-dimethylisoxazol-5-yl)-2-(3-methoxyphenyl)-7-azaspiro[3.5]nonane-7-carboxamide] | 2190 | 741 | (+)^c | –
2 | Cc1noc(NC(=O)N2CCC3(CC2)CC(c2cccc(C(F)(F)F)c2)C3)c1C [Example 6, N-(3,4-dimethylisoxazol-5-yl)-2-[3-(trifluoromethyl)phenyl]-7-azaspiro[3.5]nonane-7-carboxamide] | 3060 | 3690 | – | (−)^e
3 | Cc1cccc(C2CC3(CCN(C(=O)Nc4onc(C)c4C)CC3)C2)c1 [Example 7, N-(3,4-dimethylisoxazol-5-yl)-2-(3-methylphenyl)-7-azaspiro[3.5]nonane-7-carboxamide] | 2870 | 1620 | – | (−)^e
4 | Cc1ccc(C2CC3(CCN(C(=O)Nc4onc(C)c4C)CC3)C2)cc1C [Example 8, N-(3,4-dimethylisoxazol-5-yl)-2-(3,4-dimethylphenyl)-7-azaspiro[3.5]nonane-7-carboxamide] | 2820 | 1920 | – | (−)^e
5 | O=C(Nc1cccnn1)N1CCC2(CC1)CC(c1cccc(Oc3ncc(Br)cn3)c1)C2 [Example 9, 2-{3-[(5-bromopyrimidin-2-yl)oxy]phenyl}-N-pyridazin-3-yl-7-azaspiro[3.5]nonane-7-carboxamide] | 2450 | 1430 | (+)^c | –
6 | O=C(Nc1cccnn1)N1CCC2(CC1)CC(c1cccc(Oc3ccc(Br)cn3)c1)C2 [Example 10, 2-{3-[(5-bromopyridin-2-yl)oxy]phenyl}-N-pyridazin-3-yl-7-azaspiro[3.5]nonane-7-carboxamide] | 2040 | 1820 | (−)^c | –
